From patent US8952024B2, “Herbicidal pyrimidone derivatives” (E I du Pont de Nemours and Company, priority 2009, dated 2015)

Legend:
Format in all cases: in vivo
[1] = system: pigweed (Amaranthus retroflexus); assay: Test B pre-/postemergence plant response; conditions: Postemergence
Outline: (§1)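 Seeds sown in loam–sand blend were treated preemergence, and plants at 2–18 cm (1- to 4-leaf stage) in peat-based medium were treated postemergence; compounds were formulated in non-phytotoxic solvent with surfactant. After 13–15 days in greenhouse, response was visually rated against controls, 0 (no effect) to 100 (complete control).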

wild oat (Avena fatua) = assay: Test B pre-/postemergence plant response; conditions: Postemergence
Outline: as §1

[2] = system: canarygrass (Phalaris minor); assay: Test B postemergence plant response; conditions: Postemergence
Text: (§2) At the same time, plants selected from these crop and weed species and also winter barley (Hordeum vulgare), canarygrass (Phalaris minor), chickweed (Stellaria media) and windgrass (Apera spica-venti) were planted in pots containing Redi-Earth® planting medium (Scotts Company, 14111 Scottslawn Road, Marysville, Ohio 43041) comprising spaghnum peat moss, vermiculite, wetting agent and starter nutrients and treated with postemergence applications of some of the test chemicals formulated in the same manner. Plants ranged in height from 2 to 18 cm (1- to 4-leaf stage) for postemergence treatments.
(§3) Treated plants and controls were maintained in a greenhouse for 13 to 15 days, after which time all treated plants were visually evaluated and compared to controls. Plant response ratings, summarized in Table B, are based on a scale of 0 to 100 where 0 is no effect and 100 is complete control. A dash (-) response means no test result.

[3] = system: chickweed (Stellaria media); assay: Test B postemergence plant response; conditions: Postemergence
Text: as §2, §3

[4] = system: windgrass (Apera spica-venti); assay: Test B postemergence plant response; conditions: Postemergence
Text: as §2, §3

[5] = system: winter barley (Hordeum vulgare); assay: Test B postemergence plant response; conditions: for Plant response rating, Barley: Postemergence
Text: as §2, §3

[6] = 31 g ai/ha, 0 to 100 scale (0 no effect, 100 complete control)
[7] = 125 g ai/ha, scale 0 to 100 (0 no effect, 100 complete control)
[8] = 250 g ai/ha, scale 0 to 100 (0 no effect, 100 complete control), 13 to 15 days
[9] = 125 g ai/ha, scale 0 (no effect) to 100 (complete control), 13 to 15 days
[10] = 62 g ai/ha, scale 0 to 100 (0 no effect, 100 complete control)

Row | SMILES | Plant response rating, Pigweed [1, 8] | Plant response rating, Oat, Wild (wild oat (Avena fatua); [6]) | Plant response rating, Oat, Wild (wild oat (Avena fatua); [8]) | Plant response rating, Canarygrass [2, 6] | Plant response rating, Canarygrass [2, 8] | Plant response rating, Chickweed [3, 6] | Plant response rating, Chickweed [3, 8] | Plant response rating, Windgrass [4, 6] | Plant response rating, Windgrass [4, 8] | Plant response rating, Barley [5, 6] | Plant response rating, Barley [5, 8] | further results
1 | O=C1CCCC(O)=C1C(=O)c1cnc(C2CC2)n(C2CCCCC2)c1=O [Compound 160] | 100 | 10 | 60 | 5 | 35 | 85 | 100 | 20 | 80 | 5 | 50 | Plant response rating, Pigweed [1, 6]: 90; Plant response rating, Pigweed [1, 7]: 100; Plant response rating, Oat, Wild (wild oat (Avena fatua); [7]): 50; Plant response rating, Canarygrass [2, 7]: 20; Plant response rating, Chickweed [3, 7]: 95; Plant response rating, Windgrass [4, 7]: 60; Barley plant response rating (0 to 100 scale) ([5]; 62 g ai/ha, postemergence, 0 is no effect, 100 is complete control, 13 to 15 days): 30; Plant response rating, Barley [5, 7]: 35
2 | CCCCn1c(-c2ccccc2)ncc(C(=O)C2=C(O)C3CCC(C3)C2=O)c1=O (stereo not drawn) [Compound 240] | 100 | 25 | 60 | 5 | 40 | 90 | 100 | 60 | 98 | 5 | 15 | Plant response rating, Pigweed [1, 9]: 100; Plant response rating, Pigweed [1, 10]: 100; Plant response rating, Oat, Wild (wild oat (Avena fatua); [9]): 45; Plant response rating, Oat, Wild (wild oat (Avena fatua); [10]): 40; Plant response rating, Canarygrass [2, 9]: 30; Plant response rating, Canarygrass [2, 10]: 5; Plant response rating, Chickweed [3, 9]: 100; Plant response rating, Chickweed [3, 10]: 98; Plant response rating, Windgrass [4, 9]: 98; Plant response rating, Windgrass [4, 10]: 80; Plant response rating, Barley [5, 9]: 15; Plant response rating, Barley [5, 10]: 5
